Experiment [1] addresses T1, Adenosine receptor A1 (Homo sapiens) (UniProt P30542).
T1 sequence (whole entry): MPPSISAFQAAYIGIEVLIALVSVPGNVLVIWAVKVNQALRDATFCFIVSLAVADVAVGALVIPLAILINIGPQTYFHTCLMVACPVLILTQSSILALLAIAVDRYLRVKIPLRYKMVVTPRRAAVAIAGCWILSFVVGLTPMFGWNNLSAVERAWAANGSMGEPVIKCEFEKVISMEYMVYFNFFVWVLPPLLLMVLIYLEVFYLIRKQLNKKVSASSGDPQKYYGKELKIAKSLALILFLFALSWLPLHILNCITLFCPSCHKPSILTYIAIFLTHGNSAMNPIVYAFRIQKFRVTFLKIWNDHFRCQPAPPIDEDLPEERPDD
The experiment can be described thus: Allosteric modulation of human adenosine A1 receptor transfected in CHO FlpIn cells assessed as orthosteric agonist R-PIA-mediated ERK1/2 phosphorylation at 10 uM pretreated 30 mins before R-PIA challenge measured after 1.5 hrs by fluorescence assay. Type of experiment: functional, cell-based.

Experiment [2] addresses T1, Adenosine receptor A1 (Homo sapiens). The experiment can be described thus: Allosteric modulation of human adenosine A1 receptor transfected in CHO FlpIn cells assessed as orthosteric agonist R-PIA-mediated ERK1/2 phosphorylation at 3 uM pretreated 30 mins before R-PIA challenge measured after 1.5 hrs by fluorescence assay. Type of experiment: functional, cell-based.

For experiment [3] the target is unchanged. Nature of the experiment: Binding affinity to allosteric site of unoccupied human adenosine A1 receptor transfected in CHO FlpIn cells as potentiation of orthosteric agonist R-PIA-mediated [35S]GTPgammaS binding after 60 mins by liquid scintillation counting. It is filed as functional, cell-based. (GTPγS is a poorly hydrolysed GTP analogue; its binding reports G protein activation.)

For experiment [4] the target is unchanged. Nature of the experiment: Allosteric modulation of human adenosine A1 receptor transfected in CHO FlpIn cells assessed as orthosteric agonist R-PIA-mediated ERK1/2 phosphorylation at 0.1 to 3 uM pretreated 30 mins before R-PIA challenge measured after 1.5 hrs by fluorescence assay. Type of experiment: functional, cell-based.
The target is the same in experiment [5]. Nature of the experiment: […] at human adenosine A1 receptor transfected in CHO FlpIn cells assessed as potentiation of orthosteric agonist R-PIA-mediated [35S]GTPgammaS binding at 0.1 to 3 uM after 60 mins by liquid scintillation counting. Type of experiment: functional, cell-based.
Experiment [6] has the same target. Nature of the experiment: Binding affinity to allosteric site of unoccupied human adenosine A1 receptor transfected in CHO FlpIn cells assessed as potentiation of orthosteric agonist R-PIA-mediated ERK1/2 phosphorylation pretreated 30 mins before R-PIA challenge measured after 1.5 hrs by fluorescence assay. Type of experiment: cell-based.

The source made the active and inactive calls. The calls are words filed in the database; no cut-off is given here.

As to `Nc1scc(-c2cccc(Cl)c2)c1C(=O)c1ccc(Cl)cc1`, the Activity stood at 75% in experiment [1] and 58% in experiment [2].

For the molecule `Nc1scc(-c2cccc(F)c2)c1C(=O)c1ccc(Cl)cc1`, the Activity is 90% in experiment [1] and 76% in experiment [2].

As to `Nc1scc(-c2ccc(Cl)cc2)c1C(=O)c1ccccc1`, the figures for the Activity in experiment [1] and in experiment [2] were 51% and 46%, respectively.

For the molecule `Nc1scc(-c2ccc(I)cc2)c1C(=O)c1ccccc1`, the Activity in experiment [1] turned out to be 50%; in experiment [2], 51%.

As to `Nc1scc(-c2ccc(Cl)cc2)c1C(=O)c1ccc(Cl)cc1`, the Activity in experiment [1] and in experiment [2] was 50% throughout.

Regarding `Nc1scc(-c2cccc([N+](=O)[O-])c2)c1C(=O)c1ccc(Cl)cc1`, the Activity in experiment [1] was determined as 42%; in experiment [2], 53%.

`Nc1scc(-c2ccc([N+](=O)[O-])cc2)c1C(=O)c1ccccc1`: the results for the Activity in experiment [1] and in experiment [2] were 47% and 50%, respectively.

The term pKb denotes the Kb on a negative log10 scale, so that one unit is a factor of ten. Take `Nc1scc(-c2cccc(C(F)(F)F)c2)c1C(=O)c1ccccc1`: the values for the Activity in experiment [1] and in experiment [2] were 59% and 83%, respectively. The pKb in experiment [3] came to 5.96; in experiment [6] it was 6.37. For the same molecule, the result in experiment [4] and in experiment [5] was Active.

`Nc1scc(-c2ccccc2)c1C(=O)c1ccc(Cl)cc1`: the Activity is 64% in experiment [1] and 51% in experiment [2].

In the case of `Nc1scc(-c2cccc(F)c2)c1C(=O)c1ccccc1`, the values for the Activity in experiment [1] and in experiment [2] were 52% and 51%, respectively.

`Nc1scc(-c2ccc(I)cc2)c1C(=O)c1ccc(Cl)cc1`: the Activity in experiment [1] turned out to be 61%; in experiment [2], 54%.

As for `COc1cccc(-c2csc(N)c2C(=O)c2ccc(Cl)cc2)c1`, the Activity in experiment [1] is 60%; in experiment [2] it was 58%.

Regarding `Nc1scc(-c2cccc([N+](=O)[O-])c2)c1C(=O)c1ccccc1`, the Activity is 50% in experiment [1] and 47% in experiment [2].

Take `Nc1scc(-c2ccc(F)cc2)c1C(=O)c1ccccc1`: the Activity in experiment [1] was determined as 60%; in experiment [2], 51%.

Consider `Nc1scc(-c2cccc(Cl)c2)c1C(=O)c1ccccc1`, for which the figures for the Activity in experiment [1] and in experiment [2] were 52% and 45%, respectively.

For `COc1ccc(-c2csc(N)c2C(=O)c2ccccc2)cc1`, the Activity in experiment [1] and in experiment [2] was 52% in each case.

For `Nc1scc(-c2ccc(Br)cc2)c1C(=O)c1ccccc1`, the values for the Activity in experiment [1] and in experiment [2] were 49% and 46%, respectively.

On to `Nc1scc(-c2cc(C(F)(F)F)cc(C(F)(F)F)c2)c1C(=O)c1ccccc1`, for which the Activity amounted to 93% in experiment [1] and 83% in experiment [2]. Further, the pKb in experiment [3] was found to be 5.82; in experiment [6], 5.22. The outcome in experiment [4] and in experiment [5] was Active.

Take `Nc1scc(-c2ccccc2F)c1C(=O)c1ccc(Cl)cc1`: the Activity in experiment [1] turned out to be 87%; in experiment [2] it was 70%.

As for `Nc1scc(-c2cccc(C(F)(F)F)c2)c1C(=O)c1ccc(Cl)cc1`, the Activity came to 73% in experiment [1] and 64% in experiment [2].

Turning to `Nc1scc(-c2ccc(Br)cc2)c1C(=O)c1ccc(Cl)cc1`, the Activity in experiment [1] turned out to be 46%; in experiment [2], 45%.

On to `Nc1scc(-c2cc(C(F)(F)F)cc(C(F)(F)F)c2)c1C(=O)c1ccc(Cl)cc1`, for which the figures for the Activity in experiment [1] and in experiment [2] were 74% and 69%, respectively.

Consider `Nc1scc(-c2ccc(F)cc2)c1C(=O)c1ccc(Cl)cc1`, for which the results for the Activity in experiment [1] and in experiment [2] were 61% and 62%, respectively.

In the case of `Nc1scc(-c2cccc(Br)c2)c1C(=O)c1ccccc1`, the Activity in experiment [1] turned out to be 76%; in experiment [2], 67%.

With `COc1cccc(-c2csc(N)c2C(=O)c2ccccc2)c1`, the Activity in experiment [1] is 34%; in experiment [2], 41%.

Consider `Nc1scc(-c2ccccc2F)c1C(=O)c1ccccc1`, for which the values for the Activity in experiment [1] and in experiment [2] were 68% and 55%, respectively.

In the case of `Nc1scc(-c2ccc([N+](=O)[O-])cc2)c1C(=O)c1ccc(Cl)cc1`, the figures for the Activity in experiment [1] and in experiment [2] were 52% and 47%, respectively.

With `Nc1scc(-c2ccccc2)c1C(=O)c1ccccc1`, the Activity was 48% in experiment [1] and 49% in experiment [2].

Take `Nc1scc(-c2ccc3ccccc3c2)c1C(=O)c1ccccc1`: the values for the Activity in experiment [1] and in experiment [2] were 73% and 55%, respectively.

Take `COc1ccc(-c2csc(N)c2C(=O)c2ccc(Cl)cc2)cc1`: the Activity in experiment [1] worked out at 55%; in experiment [2], 51%.

`Nc1scc(-c2ccc3ccccc3c2)c1C(=O)c1ccc(Cl)cc1`: the Activity in experiment [1] was determined as 67%; in experiment [2], 54%.

Consider `Nc1scc(-c2cccc(Br)c2)c1C(=O)c1ccc(Cl)cc1`, for which the Activity was determined as 69% in experiment [1] and 62% in experiment [2].

(Values after ChEMBL document CHEMBL1153039, “Allosteric modulators of the adenosine A1 receptor: synthesis and pharmacological evaluation of 4-substituted 2-amino-3-benzoylthiophenes” (J Med Chem, 2009).)
